# Results from patent US20230278984A1 (Global Blood Therapeutics, Inc., priority 2020, published 2023).
# Target: T1, Human pyruvate kinase R (PKR) (Homo sapiens, UniProt P30613)
# T1 construct: Human pyruvate kinase R (PKR), residues 14-574; 6x-His (N, cleaved yes); 8x-Arg (N, cleaved yes); SUMO (N, cleaved yes); host or cells: E. coli
# Assay: Biochemical assay for activation of pyruvate kinase R (Kinase-Glo luminescence measurement of ATP generation)
# Conditions: for AC50: PKR biochemical assay, 0.1 nM PKR, 0.3 mM ADP, 2 mM FBP, 0.1 mM PEP; for Emax: maximal activation level relative to the activation level achieved by the literature compound AG-348 @ 10 μM
# Outline: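 Recombinant human PKR (residues 14-574), E. coli-expressed with His-Arg-SUMO tag removed, purified by Ni-NTA, anion exchange and size exclusion. Activation measured as ATP generation via Kinase-Glo luminescence.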
# T1 sequence (P30613 14-574): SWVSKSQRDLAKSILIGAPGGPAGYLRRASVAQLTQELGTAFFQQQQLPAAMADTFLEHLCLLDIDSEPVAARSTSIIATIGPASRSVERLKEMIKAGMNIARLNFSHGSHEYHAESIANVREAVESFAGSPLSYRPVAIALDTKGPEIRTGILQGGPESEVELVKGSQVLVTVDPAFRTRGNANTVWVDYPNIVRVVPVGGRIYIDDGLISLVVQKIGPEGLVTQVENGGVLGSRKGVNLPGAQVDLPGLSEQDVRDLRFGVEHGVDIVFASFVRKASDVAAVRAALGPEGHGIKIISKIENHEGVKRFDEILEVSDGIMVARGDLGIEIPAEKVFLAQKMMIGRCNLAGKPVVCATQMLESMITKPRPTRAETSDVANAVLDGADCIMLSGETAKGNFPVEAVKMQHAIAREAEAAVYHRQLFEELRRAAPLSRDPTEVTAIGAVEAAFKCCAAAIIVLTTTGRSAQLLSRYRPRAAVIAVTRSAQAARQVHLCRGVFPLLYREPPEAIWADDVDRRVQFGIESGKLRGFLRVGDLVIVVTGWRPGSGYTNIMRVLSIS
Compound,AC50 [nM],Emax [%]
"O=C(NCc1nc(CF)nn1-c1ccc(Cl)c(F)c1)NCc1n[nH]c(=O)n1-c1ccc(Cl)c(F)c1 [Compound 107, 1-{[1-(4-chloro-3-fluorophenyl)-3-(fluoromethyl)-1H-1,2,4-triazol-5-yl]methyl}-3-{[4-(4-chloro-3-fluorophenyl)-5-oxo-4,5-dihydro-1H-1,2,4-triazol-3-yl]methyl}urea]",30,107
"Cc1nc(CNC(=O)NCc2ncnn2-c2cc(F)c3cncnc3c2)n(-c2ccc(Cl)c(F)c2)n1 [Compound 108, 1-{[1-(4-chloro-3-fluorophenyl)-3-methyl-1H-1,2,4-triazol-5-yl]methyl}-3-{[1-(5-fluoroquinazolin-7-yl)-1H-1,2,4-triazol-5-yl]methyl}urea]",900,74
"O=C(NCC1=NC2(CC2)C(=O)N1Cc1ccc(F)cc1)NCc1ncnn1-c1ccc(Cl)c(F)c1 [Compound 109, 1-{[1-(4-chloro-3-fluorophenyl)-1H-1,2,4-triazol-5-yl]methyl}-3-({6-[(4-fluorophenyl)methyl]-7-oxo-4,6-diazaspiro[2.4]hept-4-en-5-yl}methyl)urea]",110,96
"O=C(NCC1=NC2(CC2)C(=O)N1Cc1ccc(F)cc1)NCc1ncnn1-c1ccc2cccnc2c1 [Compound 110, 3-({6-[(4-fluorophenyl)methyl]-7-oxo-4,6-diazaspiro[2.4]hept-4-en-5-yl}methyl)-1-{[1-(quinolin-7-yl)-1H-1,2,4-triazol-5-yl]methyl}urea]",61,83
"Cc1nc(CNC(=O)NCC2=NC3(CC3)C(=O)N2c2ccc3cccnc3c2)n(-c2ccc(Cl)c(F)c2)n1 [Compound 111, 1-{[1-(4-chloro-3-fluorophenyl)-3-methyl-1H-1,2,4-triazol-5-yl]methyl}-3-{[7-oxo-6-(quinolin-7-yl)-4,6-diazaspiro[2.4]hept-4-en-5-yl]methyl}urea]",140,105
"Cc1nc(CNC(=O)NCC2=NC3(CCC3)C(=O)N2c2ccc3cccnc3c2)n(-c2ccc(Cl)c(F)c2)n1 [Compound 112, 1-{[1-(4-chloro-3-fluorophenyl)-3-methyl-1H-1,2,4-triazol-5-yl]methyl}-3-{[8-oxo-7-(quinolin-7-yl)-5,7-diazaspiro[3.4]oct-5-en-6-yl]methyl}urea]",802,126
"Cc1nc(CNC(=O)NCc2ncnn2-c2cc(C)c3cccnc3c2)n(-c2ccc(Cl)c(F)c2)n1 [Compound 113, 1-{[1-(4-chloro-3-fluorophenyl)-3-methyl-1H-1,2,4-triazol-5-yl]methyl}-3-{[1-(5-methylquinolin-7-yl)-1H-1,2,4-triazol-5-yl]methyl}urea]",40,116
"Cc1ccc(-n2nnnc2CNC(=O)NCc2nnnn2-c2ccc(C)cc2F)c(F)c1 [Compound 114, 1,3-bis({[1-(2-fluoro-4-methylphenyl)-1H-1,2,3,4-tetrazol-5-yl]methyl})urea]",670,61
"O=C(NCc1nnnn1-c1ccc(C(F)(F)F)cc1)NCc1nnnn1-c1ccc(C(F)(F)F)cc1 [Compound 115, 1,3-bis({1-[4-(trifluoromethyl)phenyl]-1H-1,2,3,4-tetrazol-5-yl}methyl)urea]",1700,148
"O=C(NCc1ncnn1-c1ccc(Cl)nc1)NCc1ncnn1-c1ccc(Cl)nc1 [Compound 116, 1,3-bis({[1-(6-chloropyridin-3-yl)-1H-1,2,4-triazol-5-yl]methyl})urea]",89,39
"COc1ccc(-n2ncnc2CNC(=O)NCc2ncnn2-c2ccc(OC)nc2)cn1 [Compound 117, 1,3-bis({[1-(6-methoxypyridin-3-yl)-1H-1,2,4-triazol-5-yl]methyl})urea]",2600,53
"COc1ccc(-n2ncnc2CNC(=O)NCc2ncnn2-c2ccc(Cl)c(F)c2)cn1 [Compound 118, 3-{[1-(4-chloro-3-fluorophenyl)-1H-1,2,4-triazol-5-yl]methyl}-1-{[1-(6-methoxypyridin-3-yl)-1H-1,2,4-triazol-5-yl]methyl}urea]",47,36
"O=C(NCc1ncnn1-c1ccc(O)nc1)NCc1ncnn1-c1ccc(Cl)c(F)c1 [Compound 119, 3-{[1-(4-chloro-3-fluorophenyl)-1H-1,2,4-triazol-5-yl]methyl}-1-{[1-(6-hydroxypyridin-3-yl)-1H-1,2,4-triazol-5-yl]methyl}urea]",1100,31
"CCN(Cc1ncnn1-c1ccc(Cl)c(F)c1)C(=O)NCc1ncnn1-c1ccc(OC)nc1 [Compound 120, 3-{[1-(4-chloro-3-fluorophenyl)-1H-1,2,4-triazol-5-yl]methyl}-3-ethyl-1-{[1-(6-methoxypyridin-3-yl)-1H-1,2,4-triazol-5-yl]methyl}urea]",220,51
"CCN(Cc1ncnn1-c1ccc(Cl)c(F)c1)C(=O)NCc1ncnn1-c1ccc(O)nc1 [Compound 121, 3-{[1-(4-chloro-3-fluorophenyl)-1H-1,2,4-triazol-5-yl]methyl}-3-ethyl-1-{[1-(6-hydroxypyridin-3-yl)-1H-1,2,4-triazol-5-yl]methyl}urea]",7800,47
"CCN(Cc1ncnn1-c1ccc(OC)nc1)C(=O)NCc1ncnn1-c1ccc(Cl)c(F)c1 [Compound 122, 3-{[1-(4-chloro-3-fluorophenyl)-1H-1,2,4-triazol-5-yl]methyl}-1-ethyl-1-{[1-(6-methoxypyridin-3-yl)-1H-1,2,4-triazol-5-yl]methyl}urea]",190,42
"COc1ccc(-n2ncnc2CNC(=O)NCc2nc(C)nn2-c2ccc(Cl)c(F)c2)cn1 [Compound 123, 3-{[1-(4-chloro-3-fluorophenyl)-3-methyl-1H-1,2,4-triazol-5-yl]methyl}-1-{[1-(6-methoxypyridin-3-yl)-1H-1,2,4-triazol-5-yl]methyl}urea]",140,70
"CCN(Cc1ncnn1-c1ccc(OC)nc1)C(=O)NCc1nc(C)nn1-c1ccc(Cl)c(F)c1 [Compound 124, 3-{[1-(4-chloro-3-fluorophenyl)-3-methyl-1H-1,2,4-triazol-5-yl]methyl}-1-ethyl-1-{[1-(6-methoxypyridin-3-yl)-1H-1,2,4-triazol-5-yl]methyl}urea]",270,79
"Cc1nc(CNC(=O)NCc2ncnn2-c2cc3ccccc3cn2)n(-c2ccc(Cl)c(F)c2)n1 [Compound 125, 1-{[1-(4-chloro-3-fluorophenyl)-3-methyl-1H-1,2,4-triazol-5-yl]methyl}-3-{[1-(isoquinolin-3-yl)-1H-1,2,4-triazol-5-yl]methyl}urea]",3800,81
"Cc1nc(CNC(=O)NCc2ncnn2-c2cnc3ccccc3c2)n(-c2ccc(Cl)c(F)c2)n1 [Compound 126, 1-{[1-(4-chloro-3-fluorophenyl)-3-methyl-1H-1,2,4-triazol-5-yl]methyl}-3-{[1-(quinolin-3-yl)-1H-1,2,4-triazol-5-yl]methyl}urea]",67,84
"Cc1nc(CNC(=O)NCc2ncnn2-c2ccc3ncncc3c2)n(-c2ccc(Cl)c(F)c2)n1 [Compound 127, 1-{[1-(4-chloro-3-fluorophenyl)-3-methyl-1H-1,2,4-triazol-5-yl]methyl}-3-{[1-(quinazolin-6-yl)-1H-1,2,4-triazol-5-yl]methyl}urea]",47,45
